Experimental data from publication PMC3502511, “Inhibition of the Prokaryotic Pentameric Ligand-Gated Ion Channel ELIC by Divalent Cations” (PLoS Biology, 2012).

Columns and labels:
ELIC D113N = biological target: T1, ELIC D113N (Dickeya chrysanthemi, UniProt P0C7B7, D113N/INS163G); experiment: Two-electrode voltage clamp, ELIC D113N in oocytes; type: cell-based, Erwinia chrysanthemi; conditions: agonist cysteamine
T1 construct: expressed in transfected cells; host or cells: X. laevis oocytes
Method: (§1) Constructs containing the gene of either the WT or mutant channels preceded by the signal sequence of the chicken α7nAchR were cloned into the pTLN vector for expression in X. laevis oocytes. After linearization of the plasmid DNA by MluI, capped complementary RNA was transcribed with the mMessage mMachine kit (Ambion) and purified with the RNeasy kit (Qiagen). For expression, 1–50 ng of RNA was injected into defolliculated oocytes. Two-electrode voltage clamp measurements were performed 1 d after injection at 20°C (OC-725B, Warner Instrument Corp.). Currents were recorded in bath solutions containing 10 mM HEPES (pH 7), 130 mM NaCl, and the indicated concentrations of cysteamine and divalent cations. In case of solutions containing Zn^2+, cysteamine was replaced by propylamine. The membrane potential in all dose–response measurements was set to −40 mV. As ELIC is permeable to divalent cations, we tested if endogenous calcium-activated chloride channels affected our measurements. To chelate intracellular calcium ions, the oocytes were incubated for 15 to 30 min in bath solutions lacking divalent ions but containing 10 µM BAPTA-AM.

ELIC N251A = biological target: T2, ELIC N251A (Dickeya chrysanthemi, UniProt P0C7B7, N250A); experiment: Two-electrode voltage clamp, ELIC N251A in oocytes; type: cell-based, Erwinia chrysanthemi; conditions: agonist cysteamine
T2 construct: expressed in transfected cells; host or cells: X. laevis oocytes
Method: as §1

ELIC = biological target: T3, ELIC (Dickeya chrysanthemi, UniProt P0C7B7, INS163G); conditions: single channel data; ref Marabelli et al., in preparation; cited from earlier work
T3 construct: expressed in transfected cells; host or cells: HEK 293 cells (ATCC CRL-1573), pcDNA3

ELIC E150A = biological target: T4, ELIC E150A (Dickeya chrysanthemi, UniProt P0C7B7, E150A/INS163G); experiment: Two-electrode voltage clamp, ELIC E150A in oocytes; type: cell-based, Erwinia chrysanthemi; conditions: agonist cysteamine
T4 construct: expressed in transfected cells; host or cells: X. laevis oocytes
Method: as §1

ELIC R91A = biological target: T5, ELIC R91A (Dickeya chrysanthemi, UniProt P0C7B7, INS163G/R91A); experiment: Two-electrode voltage clamp, ELIC R91A in oocytes; type: cell-based, Erwinia chrysanthemi; conditions: R91A, agonist cysteamine
T5 construct: expressed in transfected cells; host or cells: X. laevis oocytes
Method: as §1

ELIC D86A = biological target: T6, ELIC D86A (Dickeya chrysanthemi, UniProt P0C7B7, D86A/INS163G); experiment: Two-electrode voltage clamp, ELIC D86A in oocytes; type: cell-based, Erwinia chrysanthemi; conditions: agonist cysteamine
T6 construct: expressed in transfected cells; host or cells: X. laevis oocytes
Method: as §1

ELIC D113A = biological target: T7, ELIC D113A (Dickeya chrysanthemi, UniProt P0C7B7, D113A/INS163G); experiment: Two-electrode voltage clamp, ELIC D113A in oocytes; type: cell-based, Erwinia chrysanthemi; conditions: agonist cysteamine
T7 construct: expressed in transfected cells; host or cells: X. laevis oocytes
Method: as §1

ELIC D158N = biological target: T8, ELIC D158N (Dickeya chrysanthemi, UniProt P0C7B7, D158N/INS163G); experiment: Two-electrode voltage clamp, ELIC D158N in oocytes; type: cell-based, Erwinia chrysanthemi; conditions: agonist cysteamine
T8 construct: expressed in transfected cells; host or cells: X. laevis oocytes
Method: as §1

ELIC WT = biological target: T9, ELIC WT (Dickeya chrysanthemi, UniProt P0C7B7); experiment: cell-based; type: cell-based, Erwinia chrysanthemi; conditions: agonist cysteamine
T9 construct: expressed in transfected cells; host or cells: X. laevis oocytes (cRNA injection, pTLN vector)
Method: as §1

ELIC D113A/D158A = biological target: T10, ELIC D113A/D158A (Dickeya chrysanthemi, UniProt P0C7B7, D113A/D158A/INS163G); experiment: cell-based; type: cell-based, Erwinia chrysanthemi; conditions: 113A/158A, agonist cysteamine
T10 construct: expressed in transfected cells; host or cells: X. laevis oocytes
Method: as §1

ELIC S84A [1] = experiment: Two-electrode voltage clamp, ELIC S84A in oocytes; type: cell-based, Erwinia chrysanthemi; conditions: S84A as printed in the N251A line (r30); Ca^2+ 10 mM; agonist cysteamine
Method: as §1

ELIC S84A [2] = biological target: T11, ELIC S84A (Dickeya chrysanthemi, UniProt P0C7B7, INS163G/S84A); experiment: Two-electrode voltage clamp, ELIC S84A in oocytes; type: cell-based, Erwinia chrysanthemi; conditions: S84A, agonist cysteamine
T11 construct: expressed in transfected cells; host or cells: X. laevis oocytes
Method: as §1

## NCCS [cysteamine]
ELIC D113N; Ca^2+ 0 mM
  EC50: 920 µM
ELIC D113N; Ca^2+ 1 mM
  EC50: 1810 µM
ELIC D113N; Ca^2+ 5 mM
  EC50: 5590 µM
ELIC D113N; Ca^2+ 10 mM
  EC50: 9780 µM
ELIC N251A; Ca^2+ 0 mM
  EC50: 290 µM
ELIC N251A; Ca^2+ 1 mM
  EC50: 840 µM
ELIC N251A; Ca^2+ 5 mM
  EC50: 1900 µM
ELIC
  maximum Popen: 98%
ELIC E150A; Ca^2+ 0 mM
  EC50: 1400 µM
ELIC E150A; Ca^2+ 1 mM
  EC50: 2200 µM
ELIC E150A; Ca^2+ 5 mM
  EC50: 6100 µM
ELIC E150A; Ca^2+ 10 mM
  EC50: 8990 µM
ELIC R91A; ACh 1 mM
  EC50: 400 µM
ELIC R91A; ACh 5 mM
  EC50: 880 µM
ELIC R91A; ACh 10 mM
  EC50: 1780 µM
ELIC R91A; Ca^2+ 0 mM
  EC50: 90 µM
ELIC R91A; Ca^2+ 0.5 mM
  EC50: 240 µM
ELIC R91A; Ca^2+ 1 mM
  EC50: 410 µM
ELIC R91A; Ca^2+ 5 mM
  EC50: 920 µM
ELIC R91A; TMA 10 mM
  EC50: 230 µM
ELIC R91A; TMA 25 mM
  EC50: 330 µM
ELIC R91A; TMA 50 mM
  EC50: 590 µM
ELIC D86A; Ca^2+ 0 mM
  EC50: 570 µM
ELIC D86A; Ca^2+ 1 mM
  EC50: 2300 µM
ELIC D86A; Ca^2+ 5 mM
  EC50: 5310 µM
ELIC D86A; Ca^2+ 10 mM
  EC50: 11200 µM
ELIC D113A; Ca^2+ 0 mM
  EC50: 950 µM
ELIC D113A; Ca^2+ 1 mM
  EC50: 880 µM
ELIC D113A; Ca^2+ 2.5 mM
  EC50: 1460 µM
ELIC D113A; Ca^2+ 5 mM
  EC50: 1860 µM
ELIC D113A; Ca^2+ 10 mM
  EC50: 2900 µM
ELIC D113A; Ca^2+ 25 mM
  EC50: 6370 µM
ELIC D158N; Ca^2+ 0 mM
  EC50: 3880 µM
ELIC D158N; Ca^2+ 1 mM
  EC50: 5610 µM
ELIC D158N; Ca^2+ 5 mM
  EC50: 8500 µM
ELIC D158N; Ca^2+ 10 mM
  EC50: 11200 µM
ELIC WT; WT/0.25Ca^2+, ACh 0 mM
  EC50: 640 µM
ELIC WT; WT/0.25Ca^2+, ACh 1 mM
  EC50: 1160 µM
ELIC WT; WT/0.25Ca^2+, ACh 5 mM
  EC50: 3460 µM
ELIC WT; WT/0.25Ca^2+, ACh 10 mM
  EC50: 5080 µM
ELIC WT; WT/0.5Ca^2+, ACh 0 mM
  EC50: 1000 µM
ELIC WT; WT/0.5Ca^2+, ACh 1 mM
  EC50: 1830 µM
ELIC WT; WT/0.5Ca^2+, ACh 5 mM
  EC50: 4030 µM
ELIC WT; WT/0.5Ca^2+, ACh 10 mM
  EC50: 8450 µM
ELIC WT; WT/1Ca^2+, ACh 0 mM
  EC50: 1730 µM
ELIC WT; WT/1Ca^2+, ACh 1 mM
  EC50: 2680 µM
ELIC WT; WT/1Ca^2+, ACh 5 mM
  EC50: 5120 µM
ELIC WT; WT/1Ca^2+, ACh 10 mM
  EC50: 8240 µM
ELIC WT; WT/BAPTA, Ca^2+ 0 mM
  EC50: 360 µM
ELIC WT; WT/BAPTA, Ca^2+ 0.25 mM
  EC50: 840 µM
ELIC WT; WT/BAPTA, Ca^2+ 0.5 mM
  EC50: 1070 µM
ELIC WT; WT/BAPTA, Ca^2+ 1.0 mM
  EC50: 2230 µM
ELIC WT; WT, ACh 1 mM
  EC50: 570 µM
ELIC WT; WT, ACh 5.0 mM
  EC50: 1490 µM
ELIC WT; WT, ACh 10.0 mM
  EC50: 2250 µM
ELIC WT; WT, Ba^2+ 1 mM
  EC50: 760 µM
ELIC WT; WT, Ba^2+ 5 mM
  EC50: 2680 µM
ELIC WT; WT, Ba^2+ 10 mM
  EC50: 5270 µM
ELIC WT; WT, Ca^2+ 0 mM
  EC50: 360 µM
ELIC WT; WT, Ca^2+ 0.1 mM
  EC50: 350 µM
ELIC WT; WT, Ca^2+ 0.25 mM
  EC50: 640 µM
ELIC WT; WT, Ca^2+ 0.5 mM
  EC50: 1000 µM
ELIC WT; WT, Ca^2+ 1.0 mM
  EC50: 1730 µM
ELIC WT; WT, Ca^2+ 2.5 mM
  EC50: 2460 µM
ELIC WT; WT, Ca^2+ 5.0 mM
  EC50: 4370 µM
ELIC WT; WT, Mg^2+ 1 mM
  EC50: 1040 µM
ELIC WT; WT, Mg^2+ 5 mM
  EC50: 3050 µM
ELIC WT; WT, Mg^2+ 10 mM
  EC50: 5310 µM
ELIC WT; WT, Sr^2+ 1 mM
  EC50: 750 µM
ELIC WT; WT, Sr^2+ 5 mM
  EC50: 2110 µM
ELIC WT; WT, Sr^2+ 10 mM
  EC50: 3410 µM
ELIC D113A/D158A; Ba^2+ 1 mM
  EC50: 3070 µM
ELIC D113A/D158A; Ba^2+ 5 mM
  EC50: 3070 µM
ELIC D113A/D158A; Ba^2+ 10 mM
  EC50: 5420 µM
ELIC D113A/D158A; Ca^2+ 0 mM
  EC50: 2330 µM
ELIC D113A/D158A; Ca^2+ 1 mM
  EC50: 1590 µM
ELIC D113A/D158A; Ca^2+ 5 mM
  EC50: 1810 µM
ELIC D113A/D158A; Ca^2+ 10 mM
  EC50: 2960 µM
ELIC D113A/D158A; Ca^2+ 25 mM
  EC50: 3350 µM
ELIC S84A [1]
  EC50: 5310 µM
ELIC S84A [2]; Ca^2+ 0 mM
  EC50: 360 µM
ELIC S84A [2]; Ca^2+ 1 mM
  EC50: 1550 µM
ELIC S84A [2]; Ca^2+ 5 mM
  EC50: 2740 µM
ELIC S84A [2]; Ca^2+ 10 mM
  EC50: 5430 µM
